Experimental data: the NIST ThermoML archive (doi:10.1021/je034177v)

Experiment: xn = mol fraction of the nth substance listed
Settings: 101 kPa, Liquid; for speed of sound: Pulse-echo method; for mass density: Vibrating tube method

ClCCCCCCCl [1,6-dichlorohexane] + CCCCCCCCCCCC
Settings | mass density [kg/m3] | speed of sound [m/s]
278.15 K, x1 = 0.0498 | 769.76 | 1355
278.15 K, x1 = 0.1003 | 780.41 | 1353.3
278.15 K, x1 = 0.1497 | 791.41 | 1352
278.15 K, x1 = 0.2527 | 815.84 | 1350.4
278.15 K, x1 = 0.4017 | 855.12 | 1350.4
278.15 K, x1 = 0.502 | 884.56 | 1351.9
278.15 K, x1 = 0.6 | 916.3 | 1355.1
278.15 K, x1 = 0.7011 | 952.18 | 1360.1
278.15 K, x1 = 0.7986 | 990.33 | 1366.8
278.15 K, x1 = 0.8998 | 1034.17 | 1376.1
278.15 K, x1 = 0.9493 | 1057.53 | 1381.5
278.15 K, x1 = 0.9691 | 1067.22 | 1383.7
278.15 K, x1 = 1 | 1082.7 | 1387.4
283.15 K, x1 = 0.0498 | 766.11 | 1335.5
283.15 K, x1 = 0.1003 | 776.72 | 1333.9
283.15 K, x1 = 0.1497 | 787.68 | 1332.7
283.15 K, x1 = 0.2527 | 812 | 1331.2
283.15 K, x1 = 0.4017 | 851.13 | 1331.4
283.15 K, x1 = 0.502 | 880.48 | 1333.3
283.15 K, x1 = 0.6 | 912.1 | 1336.7
283.15 K, x1 = 0.7011 | 947.86 | 1342
283.15 K, x1 = 0.7986 | 985.89 | 1348.9
283.15 K, x1 = 0.8998 | 1029.59 | 1358.4
283.15 K, x1 = 0.9493 | 1052.88 | 1364
283.15 K, x1 = 0.9691 | 1062.53 | 1366.2
283.15 K, x1 = 1 | 1077.97 | 1370
288.15 K, x1 = 0.0498 | 762.46 | 1315.7
288.15 K, x1 = 0.1003 | 773.04 | 1314.3
288.15 K, x1 = 0.1497 | 783.94 | 1313.2
288.15 K, x1 = 0.2527 | 808.17 | 1311.8
288.15 K, x1 = 0.4017 | 847.16 | 1312.4
288.15 K, x1 = 0.502 | 876.39 | 1314.5
288.15 K, x1 = 0.6 | 907.89 | 1318.1
288.15 K, x1 = 0.7011 | 943.53 | 1323.6
288.15 K, x1 = 0.7986 | 981.42 | 1330.7
288.15 K, x1 = 0.8998 | 1024.98 | 1340.4
288.15 K, x1 = 0.9493 | 1048.19 | 1346.1
288.15 K, x1 = 0.9691 | 1057.82 | 1348.4
288.15 K, x1 = 1 | 1073.22 | 1352.3
293.15 K, x1 = 0.0498 | 758.82 | 1296.3
293.15 K, x1 = 0.1003 | 769.35 | 1294.9
293.15 K, x1 = 0.1497 | 780.2 | 1293.9
293.15 K, x1 = 0.2527 | 804.33 | 1292.7
293.15 K, x1 = 0.4017 | 843.16 | 1293.5
293.15 K, x1 = 0.502 | 872.29 | 1295.9
293.15 K, x1 = 0.6 | 903.68 | 1299.7
293.15 K, x1 = 0.7011 | 939.19 | 1305.4
293.15 K, x1 = 0.7986 | 976.96 | 1312.8
293.15 K, x1 = 0.8998 | 1020.39 | 1322.7
293.15 K, x1 = 0.9493 | 1043.52 | 1328.4
293.15 K, x1 = 0.9691 | 1053.11 | 1330.9
293.15 K, x1 = 1 | 1068.47 | 1334.8
298.15 K, x1 = 0.0498 | 755.16 | 1276.8
298.15 K, x1 = 0.1003 | 765.66 | 1275.5
298.15 K, x1 = 0.1497 | 776.45 | 1274.6
298.15 K, x1 = 0.2527 | 800.48 | 1273.7
298.15 K, x1 = 0.4017 | 839.16 | 1274.7
298.15 K, x1 = 0.502 | 868.18 | 1277.3
298.15 K, x1 = 0.6 | 899.46 | 1281.3
298.15 K, x1 = 0.7011 | 934.87 | 1287.3
298.15 K, x1 = 0.7986 | 972.49 | 1294.8
298.15 K, x1 = 0.8998 | 1015.8 | 1304.9
298.15 K, x1 = 0.9493 | 1038.85 | 1310.8
298.15 K, x1 = 0.9691 | 1048.42 | 1313.2
298.15 K, x1 = 1 | 1063.74 | 1317.3
303.15 K, x1 = 0.0498 | – | 1257.6
303.15 K, x1 = 0.1003 | – | 1256.4
303.15 K, x1 = 0.1497 | – | 1255.5
303.15 K, x1 = 0.2527 | – | 1254.7
303.15 K, x1 = 0.4017 | – | 1256.1
303.15 K, x1 = 0.502 | – | 1258.8
303.15 K, x1 = 0.6 | – | 1263.1
303.15 K, x1 = 0.7011 | – | 1269.2
303.15 K, x1 = 0.7986 | – | 1277
303.15 K, x1 = 0.8998 | – | 1287.3
303.15 K, x1 = 0.9493 | – | 1293.3
303.15 K, x1 = 0.9691 | – | 1295.8
303.15 K, x1 = 1 | – | 1299.9
